Laboratory results: patent US20130005696A1, “BUFADIENOLIDE DERIVATIVES, PREPARING PROCESS THEREOF, COMPOSITION COMPRISING THE SAME AND THE USE THEREOF” (priority 2011, published 2013)

Tests used:
[1] = test system: PC-3 human prostatic carcinoma cell line; experiment: In vitro antitumor activity assay (SRB), PC-3; assay type: cell-based; details: Homo sapiens, Prostatic carcinoma cell; PC-3, Table 2; read-out: IC50, inhibition of cell proliferation, PC-3
Text: (§1) HeLa human cervical carcinoma cell line, A-549 human non-small cell lung carcinoma cell line, NCI-H2228 human lung carcinoma cell line, NCI-H460 human lung carcinoma cell line, MDA-MB-231 human breast carcinoma cell line, MCF-7 human breast carcinoma cell line, Bel-7402 human hepatic carcinoma cell line, Hep3B human hepatic carcinoma cell line, QGY-7703 human hepatic carcinoma cell line, MV-4-11 human leukemic cell line, DAUDI human leukemic cell line, Jurkat human leukemic cell line, A498 renal carcinoma cell line, LoVo human colon carcinoma cell line, HCT1116 human colon carcinoma cell line, A431 human skin carcinoma cell line, PANC-1 human pancreatic carcinoma cell line, U87-MG human brain carcinoma cell line, SH-SY5Y human brain carcinoma cell line, RPMI-8226 human bone carcinoma cell line, HT1080 human fibrosarcoma cell line, PC-3 human prostatic carcinoma cell line, AGS human gastric adenocarcinoma cell line, and BGC-823 human gastric adenocarcinoma cell line were purchased from the Cell Bank of the Chinese Academy of Sciences.
(§2) The positive control is bufalin (formulated according to the common method), its purity is 98% or more by HPLC-UV and its structure is identified by NMR. The compounds to be tested and the positive control were diluted with normal saline with a concentration gradient of 10^−4 M, 10^−5 M, 10^−6 M, 10^−7 M and 10^−8 M.
(§3) According to cell growth rate, tumor cells in the log phase of growth were seeded into 96-well culture plates at 100 μL per well, and allowed to attach for 24 hours, followed by addition of a test compound or positive control at 10 μL per well. For each concentration, the test was carried out in triplicate wells. Solvent control wells with addition of normal saline into cell culture and a blank well containing only cell culture medium but without cells for zeroing were also included. The tumor cells were incubated for 72 hours at 37° C. under 5% CO2, and then the culture medium (RPMI-1640) was removed. The cells were fixed with 10% cool TCA by incubating for 1 h at 4° C., washed with distilled water for 5 times, and dried naturally in the air. A solution of SRB (Sigma) (4 mg/mL) in 1% glacial acetic acid was added at 100 μL per well, and the cells were stained for 15 minutes at room temperature, and the supernatant was discarded. The plates were washed for 5 times with 1% acetic acid, and dried in air. Finally, Tris solution was added at 150 μL per well, and the absorbance (A) was measured at a wavelength of 515 nm using a microplate reader. The growth inhibition on tumor cell proliferation was calculated according to the following equation:
(§4) Growth Inhibition (%)=[(Absorbance of negative control−Absorbance of blank)−(Absorbance of sample−Absorbance of blank)]/(Absorbance of negative control−Absorbance of blank)×100%
(§5) Drug concentration: 10 μM, 1 μM, 0.1 μM, 10 nM, 1 nM, 0.1 nM.
(§6) IC50 was fitted by GraphPad Prism 4.

[2] = test system: LoVo human colon carcinoma cell line; experiment: In vitro antitumor activity assay (SRB), LoVo; assay type: cell-based; details: Table 2, read-out: IC50, inhibition of cell proliferation, LoVo
Text: as §1, §2, §3, §4, §5, §6

[3] = test system: A-549 human non-small cell lung carcinoma cell line; experiment: In vitro antitumor activity assay (SRB), A549; assay type: cell-based; details: Homo sapiens; A549, Table 2; read-out: IC50, inhibition of cell proliferation, A549
Text: as §1, §2, §3, §4, §5, §6

[4] = test system: MCF-7 human breast carcinoma cell line; experiment: In vitro antitumor activity assay (SRB), MCF-7; assay type: cell-based; details: Homo sapiens, MCF7; MCF-7, Table 2; read-out: IC50, inhibition of cell proliferation, MCF-7
Text: as §1, §2, §3, §4, §5, §6

[5] = test system: HeLa human cervical carcinoma cell line; experiment: In vitro antitumor activity assay (SRB), HeLa; assay type: cell-based; details: read-out: IC50, inhibitory activity on cell proliferation of HeLa cell line
Text: as §1, §2, §3, §4, §5, §6

[6] = test system: human-derived leukaemia MV-4-11 xenograft; experiment: Therapeutic effect against MV-4-11 xenograft in nude mice; assay type: in vivo, Balb/c nude mice
Experimental: (§7) This experiment is to investigate the in vivo inhibitory effect of II1E-01.HCl on growth of human-derived hepatic carcinoma HepG2 cell, human-derived breast carcinoma MDA-MB-231 cell, human-derived lung carcinoma H460 cell, human-derived colon carcinoma HCT-116 cell, human-derived […] MV-4-11 cell xenografts in nude mice.
(§8) Formulation of solvent control (5% anhydrous ethanol & 5% aqueous glucose solution): 2.5 mL anhydrous ethanol was added into a 50 mL tube, followed by addition of 47.5 mL 5% glucose solution for injection followed by shaking, and stored at room temperature before use.
(§9) Formulation of the preparations of the compounds to be tested: formulations with concentrations of 0.4 mg/mL and 0.6 mg/mL were prepared respectively. An appropriate amount of II1E-01.HCl was weighted and put into a 50 mL tube, followed by addition of corresponding volume of solvent to get the desired concentration and mixed using a vortex mixer. After the solid was dissolved completely, the solution was subpackaged into 4 mL vials and stored at refrigerated condition (2-8° C.) until use.
(§10) Experimental animals: Balb/c nude mice (male, six weeks old).
MV-4-11 cells were in vitro cultured to be proliferated. The cells in the log phase of growth were collected and resuspended in IMDM serum-free medium, and then implanted subcutaneously into the axilla of the right forelimb of nude mice. After 37 days, the tumor size reached about 270 mm^3. The mice bearing the tumor were grouped by randomized block method according to the tumor size into 3 groups, which contain 6 mice in each group and include the group of solvent control, group of positive control (Sunitinib 40 mg/kg), and group of the testing compound II1E-01.HCl (4 mg/kg QOD). In the positive control group, sunitinib was administered intragastrically once daily (QD). In the group of II1E-01.HCl, II1E-01.HCl was administered intravenously at tail once every other day (QOD). The animals were given the drugs for 21 days, during which the growth of tumor and the body weight of the mice were observed.
After continuously administering for 21 days (the 58th day after the implantation), the tumor weight and inhibition rate were calculated, and results are listed in Table 9. […] In the group of the testing compound II1E-01.HCl (4 mg/kg QOD), the tumor also completely disappeared at 14th day after administration, and the inhibition rate was 100.00% (P<0.01) at the end of the experiment.

[7] = test system: human non-small cell lung carcinoma A549 xenograft; experiment: In vivo therapeutic effect against A549 xenograft in nude mice; details: A549 xenograft, 5 mg/kg iv QW, after 21 days
Experimental: This experiment is to evaluate the in vivo therapeutic effects of compounds bufalin, II1D-06.HCl, II1E-01.HCl and II1B-02.HCl against human-derived lung carcinoma A549 cell xenograft in nude mice.
Solvent control: 4% DMSO & 2% Tween-80 & 5% PEG-400 solution in normal saline
Compounds to be tested: bufalin, II1B-02.HCl, II1E-01.HCl, II1D-06.HCl
Formulating method: the compound was dissolved with DMSO into a stock solution, which was then diluted into an injection with a final DMSO concentration of 4%.
Positive control: Rapamycin Formulating method: it was formulated into an injection with a final DMSO concentration of 4%.
After the tumor size reaches about 200 mm^3, the mice bearing the tumor were grouped randomly into 8 groups according to the tumor size, including the groups of solvent control, positive control rapamycin 5 mg/kg, II1E-01.HCl 2 mg/kg, II1E-01.HCl 4 mg/kg, II1E-01.HCl 6 mg/kg, II1B-02.HCl 4 mg/kg, II1D-06.HCl 4 mg/kg, bufalin 1.6 mg/kg, wherein the dosage selection is based on that the maximum tolerable dosage is 1.6 mg/kg for bufalin and 6 mg/kg for II1E-01.HCl. Rapamycin was administered intravenously once a week (QW) and the other groups were administered intraperitoneally once every other day (QOD). The tumor was weighted after 21 days to calculate the inhibition rate. The equation for calculating inhibition rate (IR) is IR=(WC−WT)/WC×100%, wherein, WC represents the tumor weight of the control group, and WT represents the tumor weight of the treating group.

[8] = test system: human hepatic carcinoma HepG2 xenograft; experiment: Therapeutic effect against HepG2 xenograft in nude mice; assay type: in vivo, Balb/c nude mice; details: 10 mg/kg iv, QW × 14 d; for Inhibition Rate (%): 10 mg/kg
Experimental: as §7, §8, §9, §10
HepG2 cells were in vitro cultured to be proliferated. The cells in the log phase of growth were collected and resuspended in DMEM serum-free medium, and then implanted subcutaneously into the axilla of the right forelimb of nude mice. After 11 days, the tumor size reached about 250 mm^3. The mice bearing the tumor were grouped according to the tumor size into 6 groups, including the group of solvent control, groups of positive controls (Rapamycin 10 mg/kg and Vinorelbine 8 mg/kg), and groups of low (2 mg/kg), middle (4 mg/kg) and high (6 mg/kg) dosages of the testing compound II1E-01.HCl. Each group was administered intravenously at tail. In the solvent control group, the solvent control solution was administered intravenously once every other day (QOD). In the low, middle and high dosage groups of II1E-01.HCl, II1E-01.HCl was administered intravenously once every other day (QOD). In the positive control groups, Rapamycin 10 mg/kg and Vinorelbine 8 mg/kg were administered once a week (QW). The animals were given the drugs for two weeks. In the two week time period, the growth of tumor and the body weight of the mice were observed.
Two weeks after administering (the 25th day after the implantation), the tumor weight and inhibition rate were calculated, and results are listed in Table 5.

SMILES: CCN(CC)CCNC(=O)O[C@H]1CC[C@@]2(C)[C@H](CC[C@@H]3[C@@H]2CC[C@]2(C)[C@@H](c4ccc(=O)oc4)CC[C@]32O)C1 [II1B-02]
- IC50 [1]: 20.1 ± 4.08 nM
- IC50 [2]: 15.7 ± 1.67 nM
- IC50 [3]: 0.39 ± 0.08 nM
- IC50 [4]: 18.8 ± 2.68 nM
- IC50 [5]: 3.73 nM

SMILES: CN(C)CCN(C)C(=O)O[C@H]1CC[C@@]2(C)[C@H](CC[C@@H]3[C@@H]2CC[C@]2(C)[C@@H](c4ccc(=O)oc4)CC[C@]32O)C1 [II1B-03]
- IC50 [1]: 27.3 ± 2.46 nM
- IC50 [2]: 13.4 ± 3.37 nM
- IC50 [3]: 2.81 ± 0.43 nM
- IC50 [4]: 10.6 ± 3.04 nM
- IC50 [5]: 1.58 nM

SMILES: CCNCCNC(=O)O[C@H]1CC[C@@]2(C)[C@H](CC[C@@H]3[C@@H]2CC[C@]2(C)[C@@H](c4ccc(=O)oc4)CC[C@]32O)C1 [II1B-05]
- IC50 [1]: 12.6 ± 0.86 nM
- IC50 [2]: 14.4 ± 0.76 nM
- IC50 [3]: 2.83 ± 0.9 nM
- IC50 [4]: 7.98 ± 1.9 nM
- IC50 [5]: 1.65 nM

SMILES: C[C@]12CC[C@H](OC(=O)N3CCCNCC3)C[C@H]1CC[C@@H]1[C@@H]2CC[C@]2(C)[C@@H](c3ccc(=O)oc3)CC[C@]12O [II1D-06]
- IC50 [1]: 1.25 ± 0.46 nM
- IC50 [2]: 0.58 ± 0.29 nM
- IC50 [3]: 0.87 ± 0.02 nM
- IC50 [4]: 2.13 ± 0.29 nM
- IC50 [5]: 0.45 nM

SMILES: C[C@]12CC[C@H](OC(=O)NCC3CCCCN3)C[C@H]1CC[C@@H]1[C@@H]2CC[C@]2(C)[C@@H](c3ccc(=O)oc3)CC[C@]12O (stereo partly drawn) [II1E-03]
- IC50 [1]: 14.8 ± 1.12 nM
- IC50 [2]: 23.4 ± 3.68 nM
- IC50 [3]: 0.58 ± 0.17 nM
- IC50 [4]: 31 ± 3.07 nM
- IC50 [5]: 0.8 nM

SMILES: CCN(CC)CCNC(=O)c1c(C)[nH]c(/C=C2\C(=O)Nc3ccc(F)cc32)c1C [Sunitinib, reference compound]
- day after administration at which the tumor completely disappeared ([6]; 40 mg/kg ig QD): 10 days
- Tumor Weight(g) Mean ± SE ([6]; 40 mg/kg ig, QD × 21 d): 0.0000 ± 0.0000 g
- Inhibition Rate (%) ([6]; 40 mg/kg ig, QD × 21 d, 40 mg/kg): 100.00%

SMILES: CO[C@H]1C[C@@H]2CC[C@@H](C)[C@@](O)(O2)C(=O)C(=O)N2CCCC[C@H]2C(=O)O[C@H]([C@H](C)C[C@@H]2CC[C@@H](O)[C@H](OC)C2)CC(=O)[C@H](C)/C=C(\C)[C@@H](O)[C@@H](OC)C(=O)[C@H](C)C[C@H](C)/C=C/C=C/C=C/1C [rapamycin, Rapamycin, reference compound]
- Inhibition Rate (%) [7]: 58.86%
- Tumor Weight(g) Mean ± SE [7]: 0.6925 ± 0.0652 g
- Tumor Weight(g) Mean ± SE [8]: 0.4806 ± 0.0269 g
- Inhibition Rate (%) [8]: 37.23%
- Inhibition Rate (%) ([8]; listed as Rapamycin): 37.23%
